Laboratory results reported in EP2135864A1, “5-(4-methanesulfonyl-phenyl)-thiazole derivatives for the treatment of acute and chronic inflammatory diseases” (FAES FARMA, S.A., priority 2008, dated 2009).

Tests used:
TNF-alpha = TNF-alpha production by PBMC of healthy volunteers, ELISA of culture supernatant; type: cell-based, human; conditions: 24 hours, median ± standard error, n=10
Description: In order to quantify the serum cytokines concentration, the extracted blood was stored in tubes both with and without anti-coagulant (collected by antecubital venopunction and arterial catheter, respectively). Blood was allowed to coagulate at room temperature in the laboratory, further separating the serum by centrifugation (600xg during 20 minutes). Supernatant were collected, filtered, divided in aliquotes and stored at -70°C. Concentration assays for different cytokines were performed by using the commercial kits described in Table 2. Table 2.- Commercial ELISA kits used in this study
Supernatants were unfrozen up to the room temperature and faced against the respective anti-cytokine by fixing them in the plate bottom and incubating them during a variable time. Subsequently, wash-outs were carried out and the substances recommended by the corresponding company were added in order to allow a colorimetric reaction, in a proportional manner to the amount of cytokine present in the supernatant. The results were assessed with the enzymo-immunoanalysis reader Multititer Plus (Tiertek Multiscan Plus, Flow Laboratories).
The analysis of the standard curves and subsequent interpolation was performed with the software Delta Soft II version 4.1 (Biometallics, Inc.) in an Apple Macintosh computer. Cytokine concentrations were converted to molar in order to calculate the molecular ratios of each case and the number of soluble molecules.
Effects of compound 12 on TNF-alpha production by PBMC of healthy volunteers in the presence or in the absence of LPS were first investigated. PBMC (5 x 10^4 cells/well, 200 µl) from 10 healthy volunteers were cultured in parallel in duplicate in tissue culture plates, 96 well, flat-bottom with low evaporation lid (353072 Falcon, Becton Dickinson labware, Franklin Lakes, USA, 07417-1886 NJ) in complete medium (RPMI-1640 with glutamine Cat BE-12-70F, Cambrex Biosciences, B4880 Verviers, Belgium), supplemented with phoetal bovine serum (origin USA, Gibco ref. 26140-079) and a solvent concentration of 10^-6 M alone or supplemented with 10^-6 M or 10^-7 M of compound 12, in the presence and in the absence of LPS (10microg/ml; E. coli LPS 0111:B4 strain InvivoGene, San Diego CA92121 USA) during 24 hours. Supernatant of cultures were frozen at -20°C and the concentration of TNF-alpha was quantified with ELISA species-specific (enzyme-linked immunosorbent assay for quantitative detection of tumour necrosis factor- alpha: human TNF-alpha ELISA BM S223/4TEUCE, Bender Med System Inc, Burlinghane CA 94010).

[1] = tested on: PBMC from healthy volunteers; test: Proliferative response of PBMC, 3[H]-Thymidine incorporation; type: cell-based, human; conditions: n=8; 4 days culture; absence or presence of PHA 10 µg/ml, PHA 2 µg/ml plus IL-2 (25 IU/ml), or anti-CD3 (12.5 ng/ml) + anti-CD28 (1:320.000)
Description: Faced against a mitogen stimulation, lymphocytes suffer a blastogenesis and cellular differentiation process. The method used to quantify the cellular proliferation was the assay of the incorporation of ^3[H]-Thymidine to the DNA de novo synthesized, and the emission of betha-radiation from the cellular cultures dried extracts (to which the tritiated base was added) was detected before its ending and harvesting. In the different experiments performed to study the proliferation, the purified cellular preparations were incubated in 96 microwells plain bottom plates at concentrations of 5 x 10^4 cells/well (200 µl final volume), in the presence of different concentrations of various mitogens with triplicate repetitions and along 4 days of culture.
The response to a specific stimuli depended on the density and cell type studied, as well as of the culture time and of the mitogenic agent concentration. […]
PBMC was cultured during 4 days (50.000 cells per well) at 37°C and 5 % CO2 atmosphere (Cell incubator HERA Cell 150, Thermoscientific, Thermoelectron, 63505 Lagenselbold, GE) in complete culture medium. […] The DNA-incorporated radioactive was quantified by using a betha particles counter Wallac Oy.

SMILES: Cc1nc(OC2CCCC2)c(-c2ccc(S(C)(=O)=O)cc2)s1 [compound 12, 4-cyclopentyloxy-5-(4-methylsulfonyl-phenyl)-2-methylthiazole]
- TNF-alpha production in PMBC from healthy volunteers (TNF-alpha; LPS (10µg/ml), 10^-6 M, vehicle 3084.63±450.00, p 0.005): 1064.91±52.82 (0.005) pg/mL
- TNF-alpha production in PMBC from healthy volunteers (TNF-alpha; LPS (10µg/ml), 10^-7 M, vehicle 3084.63±450.00, p 0.028): 1938.00±487.74 (0.028) pg/mL
- TNF-alpha production in PMBC from healthy volunteers (TNF-alpha; medium (no stimulus), 10^-6 M, vehicle 1118.00±800.00, p 0.009): 551.60±324.17 (0.009) pg/mL
- TNF-alpha production in PMBC from healthy volunteers (TNF-alpha; medium (no stimulus), 10^-7 M, vehicle 1118.00±800.00, p 0.114): 1121.00±100.48 (0.114) pg/mL
- proliferative response of the PBMC from healthy volunteers [1]: did not significantly modify
